Test results reported in ChEMBL document CHEMBL1201862, “PubChem BioAssay data set” (2004).
Activity calls are given as the source filed them.

Key:
[1] = biological target: T1, High affinity choline transporter 1 (Homo sapiens, UniProt Q9GZV3); assay: human choline transporter blockers, potency – cell-based, 5-point CRC, membrane potential dye, dose response (AID 504840); format: functional
T1 sequence (Q9GZV3 whole entry): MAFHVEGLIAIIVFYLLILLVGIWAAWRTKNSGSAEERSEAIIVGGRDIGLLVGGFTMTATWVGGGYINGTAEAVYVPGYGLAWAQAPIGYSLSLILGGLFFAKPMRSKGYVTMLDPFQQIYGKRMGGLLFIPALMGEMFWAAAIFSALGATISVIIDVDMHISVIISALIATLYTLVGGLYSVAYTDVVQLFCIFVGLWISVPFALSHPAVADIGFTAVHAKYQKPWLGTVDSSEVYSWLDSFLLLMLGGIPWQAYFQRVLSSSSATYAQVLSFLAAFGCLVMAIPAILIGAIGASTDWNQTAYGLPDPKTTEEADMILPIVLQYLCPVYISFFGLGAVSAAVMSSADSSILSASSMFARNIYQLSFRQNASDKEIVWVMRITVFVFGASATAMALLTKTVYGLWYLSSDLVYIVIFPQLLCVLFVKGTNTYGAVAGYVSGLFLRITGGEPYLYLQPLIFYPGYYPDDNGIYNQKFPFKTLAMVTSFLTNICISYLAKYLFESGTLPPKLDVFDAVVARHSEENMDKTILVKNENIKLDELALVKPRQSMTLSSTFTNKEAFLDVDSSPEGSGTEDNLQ

[2] = THP-1 cell cytotoxicity, dose response, cytotoxicity control for non-replicating M. tuberculosis project (AID 489025); format: functional
[3] = Vero E6 cell cytotoxicity, dose response, cytotoxicity control for non-replicating M. tuberculosis project, secondary assay (AID 492998); format: functional, VeroE6; settings: Vero C1008
[4] = biological target: Heat shock protein HSP 90-alpha (Homo sapiens, UniProt P07900); format: functional, organism-based
cells = format: functional
Cytochrome P450 3A4 = Cytochrome P450 3A4 (Homo sapiens, UniProt P08684);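 further: CYP3A4 tested as one member of a cytochrome P450 panel screen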
Chain of Cytochrome P450 3A4 (P08684 whole entry): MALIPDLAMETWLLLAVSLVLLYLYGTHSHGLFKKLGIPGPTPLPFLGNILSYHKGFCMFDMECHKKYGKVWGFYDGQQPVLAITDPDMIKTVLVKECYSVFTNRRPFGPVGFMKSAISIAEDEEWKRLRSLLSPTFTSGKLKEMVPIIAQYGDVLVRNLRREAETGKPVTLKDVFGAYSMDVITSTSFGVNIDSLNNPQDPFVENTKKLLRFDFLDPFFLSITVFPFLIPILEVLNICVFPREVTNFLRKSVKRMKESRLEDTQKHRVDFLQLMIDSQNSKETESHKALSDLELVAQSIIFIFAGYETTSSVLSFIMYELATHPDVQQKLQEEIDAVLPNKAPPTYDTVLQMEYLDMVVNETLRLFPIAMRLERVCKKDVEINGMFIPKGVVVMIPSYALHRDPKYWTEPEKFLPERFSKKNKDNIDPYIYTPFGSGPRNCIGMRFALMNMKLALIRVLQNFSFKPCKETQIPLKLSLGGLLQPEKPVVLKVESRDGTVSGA

Coagulation factor XII = biological target: T2, Coagulation factor XII (Homo sapiens, UniProt P00748); format: functional;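 further: activated factor XIIa alpha cleaving a fluorogenic AMC peptide substrate; inhibitor potency from loss of enzyme activity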
T2 sequence (P00748 whole entry): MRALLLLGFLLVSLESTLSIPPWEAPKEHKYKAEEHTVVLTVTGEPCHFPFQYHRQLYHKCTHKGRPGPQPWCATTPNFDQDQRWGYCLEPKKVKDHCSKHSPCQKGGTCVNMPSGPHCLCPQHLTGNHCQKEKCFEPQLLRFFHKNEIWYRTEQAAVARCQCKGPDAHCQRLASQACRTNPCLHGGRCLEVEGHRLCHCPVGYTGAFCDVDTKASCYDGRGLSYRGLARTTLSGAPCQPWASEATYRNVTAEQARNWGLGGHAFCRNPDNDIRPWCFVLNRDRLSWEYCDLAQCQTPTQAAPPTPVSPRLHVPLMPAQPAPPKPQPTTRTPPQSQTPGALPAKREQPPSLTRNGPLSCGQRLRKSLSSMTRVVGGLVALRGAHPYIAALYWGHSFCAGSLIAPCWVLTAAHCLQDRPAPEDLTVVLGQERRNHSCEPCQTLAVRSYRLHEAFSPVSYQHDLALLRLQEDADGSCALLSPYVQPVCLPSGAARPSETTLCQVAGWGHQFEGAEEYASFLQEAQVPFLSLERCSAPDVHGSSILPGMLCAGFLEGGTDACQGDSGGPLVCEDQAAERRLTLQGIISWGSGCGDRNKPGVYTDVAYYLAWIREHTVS

Cytochrome P450 2C9 = Cytochrome P450 2C9 (Homo sapiens, UniProt P11712)
Chain of Cytochrome P450 2C9 (P11712 whole entry): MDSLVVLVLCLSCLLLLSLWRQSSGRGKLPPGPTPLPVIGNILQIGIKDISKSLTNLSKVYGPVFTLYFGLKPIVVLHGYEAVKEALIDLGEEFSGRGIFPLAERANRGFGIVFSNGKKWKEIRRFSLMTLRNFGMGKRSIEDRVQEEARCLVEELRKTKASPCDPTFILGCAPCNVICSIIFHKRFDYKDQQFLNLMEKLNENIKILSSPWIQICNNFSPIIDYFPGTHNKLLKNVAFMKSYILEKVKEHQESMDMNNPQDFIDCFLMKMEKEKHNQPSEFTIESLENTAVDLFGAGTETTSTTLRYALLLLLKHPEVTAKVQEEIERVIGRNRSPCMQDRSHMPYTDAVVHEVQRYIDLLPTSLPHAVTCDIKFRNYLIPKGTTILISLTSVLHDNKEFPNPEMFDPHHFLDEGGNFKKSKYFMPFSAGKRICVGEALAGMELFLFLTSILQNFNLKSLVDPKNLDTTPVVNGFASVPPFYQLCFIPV

Cytochrome P450 2C19 = Cytochrome P450 2C19 (Homo sapiens, UniProt P33261); assay: Cytochrome panel assay with activity outcomes. Panel member name: p450-cyp2c19 Compounds with AC50 equal or less than 10 uM are considered active; format: functional; settings: read-out: AC50
Chain of Cytochrome P450 2C19 (P33261 whole entry): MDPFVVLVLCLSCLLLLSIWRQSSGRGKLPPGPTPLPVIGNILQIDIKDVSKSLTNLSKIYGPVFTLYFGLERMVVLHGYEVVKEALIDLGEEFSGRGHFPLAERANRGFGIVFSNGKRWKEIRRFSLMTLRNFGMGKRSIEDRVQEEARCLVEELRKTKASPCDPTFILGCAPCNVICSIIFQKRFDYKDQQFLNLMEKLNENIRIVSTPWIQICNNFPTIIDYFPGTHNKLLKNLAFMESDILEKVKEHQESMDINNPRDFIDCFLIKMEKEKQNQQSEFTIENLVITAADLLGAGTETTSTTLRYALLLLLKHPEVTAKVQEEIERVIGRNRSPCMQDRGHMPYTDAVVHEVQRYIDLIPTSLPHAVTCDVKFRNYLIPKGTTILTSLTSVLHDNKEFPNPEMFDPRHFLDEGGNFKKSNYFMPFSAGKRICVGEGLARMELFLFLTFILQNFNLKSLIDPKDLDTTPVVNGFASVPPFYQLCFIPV

[5] = biological target: Luciferin 4-monooxygenase (Photinus pyralis, UniProt P08659); assay: inhibition of purified Photinus pyralis luciferase – biochemical, luminescence, dose response (AID 1891)
Chain of Luciferin 4-monooxygenase (P08659 whole entry): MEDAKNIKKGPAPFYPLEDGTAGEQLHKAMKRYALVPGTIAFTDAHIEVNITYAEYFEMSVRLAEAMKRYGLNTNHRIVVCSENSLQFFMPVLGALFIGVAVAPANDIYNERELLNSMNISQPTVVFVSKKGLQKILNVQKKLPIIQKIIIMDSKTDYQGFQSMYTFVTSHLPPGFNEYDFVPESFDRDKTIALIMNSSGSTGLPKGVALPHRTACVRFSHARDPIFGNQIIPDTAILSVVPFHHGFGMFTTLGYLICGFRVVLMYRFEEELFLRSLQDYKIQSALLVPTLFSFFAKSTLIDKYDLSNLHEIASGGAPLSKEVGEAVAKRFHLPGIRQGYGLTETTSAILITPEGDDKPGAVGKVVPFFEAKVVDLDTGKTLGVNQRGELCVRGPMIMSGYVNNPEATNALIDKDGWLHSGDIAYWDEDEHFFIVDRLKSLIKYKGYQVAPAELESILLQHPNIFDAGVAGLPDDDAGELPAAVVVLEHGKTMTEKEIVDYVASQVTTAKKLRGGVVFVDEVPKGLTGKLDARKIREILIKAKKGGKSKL

[6] = Luminescence Cell-Based Dose Confirmation HTS to Identify Inhibitors of Platelet Dense Granule Release. [Related pubchem assays: 1663 (Primary HTS), 1678 (Summary of Project)]; format: functional
[7] = DRD fibroblast viability loss – cell-based, non-viral oncogenic, luminescence, dose response (AID 1934); format: functional; settings: Homo sapiens
[8] = HEK-293T viability loss after treatment – luminescence, T-cell screen hits, cytotoxicity control for TCR NF-kB inhibitor project, dose response (AID 489026); format: functional, cell-based;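 further: cells exposed to compound about 14 hours before the viability readout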
[9] = biological target: T3, Heat shock factor protein 1 (Mus musculus, UniProt P38532); assay: decrease of HSF1-responsive luciferase luminescence – cell-based, NIH3T3, dose retest, confirmation (AID 2382); format: functional;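 further: NIH3T3 fibroblasts with HSF1-driven luciferase reporter stressed by proteasome inhibitor MG132; luminescence from HSF1-driven luciferase expression after 8 hours of MG132 stress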
T3 sequence (P38532 whole entry): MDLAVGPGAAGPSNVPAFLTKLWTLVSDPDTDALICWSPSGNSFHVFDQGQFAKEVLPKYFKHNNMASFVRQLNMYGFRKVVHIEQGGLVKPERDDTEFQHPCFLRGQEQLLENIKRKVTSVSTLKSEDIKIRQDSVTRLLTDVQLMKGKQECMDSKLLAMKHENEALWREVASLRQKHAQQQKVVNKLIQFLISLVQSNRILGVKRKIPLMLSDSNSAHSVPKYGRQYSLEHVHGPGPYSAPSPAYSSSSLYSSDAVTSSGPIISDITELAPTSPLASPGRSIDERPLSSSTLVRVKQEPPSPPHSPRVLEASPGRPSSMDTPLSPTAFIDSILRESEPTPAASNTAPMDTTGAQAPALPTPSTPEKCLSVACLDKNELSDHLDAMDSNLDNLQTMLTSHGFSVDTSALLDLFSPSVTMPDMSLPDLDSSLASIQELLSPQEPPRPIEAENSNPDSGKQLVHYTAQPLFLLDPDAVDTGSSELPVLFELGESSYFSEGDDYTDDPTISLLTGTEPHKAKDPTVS

BJ [10] = assay: BJ-TERT fibroblast viability loss – cell-based, RAS-independent, luminescence, dose response (AID 1933); format: functional; settings: Homo sapiens
BJ [11] = assay: cells; format: functional, cell-based; settings: Homo sapiens
BJ [12] = assay: BJ-TERT-LT-ST fibroblast viability loss – cell-based, RAS-independent, luminescence, dose response (AID 1935); format: functional; settings: Homo sapiens;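 further: BJ fibroblasts immortalized with TERT plus LT and ST oncogenes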
[13] = biological target: Glucose-6-phosphate 1-dehydrogenase (Homo sapiens, UniProt P11413); assay: inhibition of Homo sapiens G6PD, dose series – biochemical, fluorescence, selectivity assay for P. falciparum G6PD inhibitor project, dose response (AID 504792); format: functional
Chain of Glucose-6-phosphate 1-dehydrogenase (P11413 whole entry): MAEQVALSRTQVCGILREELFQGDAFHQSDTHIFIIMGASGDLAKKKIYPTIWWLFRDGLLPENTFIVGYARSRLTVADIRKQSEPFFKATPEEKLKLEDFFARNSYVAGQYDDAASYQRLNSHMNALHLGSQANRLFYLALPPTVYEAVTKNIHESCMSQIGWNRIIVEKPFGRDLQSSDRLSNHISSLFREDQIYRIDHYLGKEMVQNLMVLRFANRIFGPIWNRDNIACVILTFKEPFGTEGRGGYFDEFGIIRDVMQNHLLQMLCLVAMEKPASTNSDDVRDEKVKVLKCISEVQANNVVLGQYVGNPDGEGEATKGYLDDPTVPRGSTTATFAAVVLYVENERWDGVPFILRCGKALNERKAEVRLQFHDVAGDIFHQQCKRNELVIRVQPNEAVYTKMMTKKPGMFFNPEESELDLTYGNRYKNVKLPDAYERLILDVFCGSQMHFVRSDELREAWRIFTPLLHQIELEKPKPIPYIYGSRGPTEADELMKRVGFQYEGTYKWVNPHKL

[14] = reduction of Shn3 3'UTR-driven luciferase in osteoblasts – cell-based, Clone20 osteoblasts, firefly luciferase, cherry-picked, dose response (AID 624132); format: functional;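 further: firefly luciferase luminescence from reporter carrying the Shn3 3'UTR in osteoblasts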
Cytochrome P450 1A2 = biological target: T4, Cytochrome P450 1A2 (Homo sapiens, UniProt P05177);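 further: PubChem cytochrome P450 panel assay, CYP1A2 panel member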
T4 sequence (P05177 whole entry): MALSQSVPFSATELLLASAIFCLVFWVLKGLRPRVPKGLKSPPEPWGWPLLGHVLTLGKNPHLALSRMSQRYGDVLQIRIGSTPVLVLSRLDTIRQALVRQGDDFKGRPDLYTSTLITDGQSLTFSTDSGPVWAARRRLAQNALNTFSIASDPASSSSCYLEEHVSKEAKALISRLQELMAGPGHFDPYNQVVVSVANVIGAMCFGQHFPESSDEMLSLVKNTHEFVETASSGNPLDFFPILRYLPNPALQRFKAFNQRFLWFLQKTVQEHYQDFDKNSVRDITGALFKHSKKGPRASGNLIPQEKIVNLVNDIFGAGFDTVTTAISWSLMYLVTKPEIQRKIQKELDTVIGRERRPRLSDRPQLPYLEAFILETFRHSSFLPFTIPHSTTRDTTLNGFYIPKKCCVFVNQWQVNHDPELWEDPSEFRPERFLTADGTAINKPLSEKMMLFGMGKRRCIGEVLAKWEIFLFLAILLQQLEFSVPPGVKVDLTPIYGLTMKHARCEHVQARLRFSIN

[15] = loss of viability in HepG2 cells – cell-based, CellTiter-Glo, cherry-picked, cytotoxicity control for Shn3 inhibitor project, dose response (AID 624134); format: functional
Protein skinhead-1 = biological target: T5, Protein skinhead-1 (Caenorhabditis elegans, UniProt P34707); format: functional
T5 sequence (P34707 whole entry): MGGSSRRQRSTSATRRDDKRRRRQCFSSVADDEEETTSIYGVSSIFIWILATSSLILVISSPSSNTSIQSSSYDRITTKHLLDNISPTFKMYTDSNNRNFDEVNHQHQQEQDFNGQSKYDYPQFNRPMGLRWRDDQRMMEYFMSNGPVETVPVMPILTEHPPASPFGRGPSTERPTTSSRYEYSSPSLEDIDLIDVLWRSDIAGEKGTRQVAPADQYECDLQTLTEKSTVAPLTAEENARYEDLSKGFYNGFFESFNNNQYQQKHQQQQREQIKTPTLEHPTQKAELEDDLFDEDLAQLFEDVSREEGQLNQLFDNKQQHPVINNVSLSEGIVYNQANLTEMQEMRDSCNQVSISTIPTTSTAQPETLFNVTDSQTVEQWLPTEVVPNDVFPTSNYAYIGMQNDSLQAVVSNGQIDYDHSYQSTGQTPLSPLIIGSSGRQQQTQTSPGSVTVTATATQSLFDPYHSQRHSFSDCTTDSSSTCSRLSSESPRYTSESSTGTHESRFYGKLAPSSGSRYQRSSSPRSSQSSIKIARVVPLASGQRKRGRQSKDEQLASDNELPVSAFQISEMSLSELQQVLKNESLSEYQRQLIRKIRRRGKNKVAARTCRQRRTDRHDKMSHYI

[16] = non-specific 3'UTR reporter inhibition in Clone20-Shn3RL – cell-based, Renilla luciferase, cherry-picked, counter-screen for Shn3 inhibitor project, dose response (AID 624133); format: functional
[17] = biological target: Glyceraldehyde-3-phosphate dehydrogenase (Homo sapiens, UniProt P04406)
Chain of Glyceraldehyde-3-phosphate dehydrogenase (P04406 whole entry): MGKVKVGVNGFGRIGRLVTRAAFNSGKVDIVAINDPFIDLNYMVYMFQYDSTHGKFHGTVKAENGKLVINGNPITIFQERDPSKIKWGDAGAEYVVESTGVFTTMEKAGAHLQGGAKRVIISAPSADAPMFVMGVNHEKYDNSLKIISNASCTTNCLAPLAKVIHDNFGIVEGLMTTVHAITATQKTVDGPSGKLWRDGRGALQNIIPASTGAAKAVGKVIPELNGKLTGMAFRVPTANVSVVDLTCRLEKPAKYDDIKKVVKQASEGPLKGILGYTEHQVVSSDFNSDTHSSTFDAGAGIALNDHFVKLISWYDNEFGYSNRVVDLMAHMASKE

[18] = biological target: T6, Alkaline phosphatase, tissue-nonspecific isozyme (Homo sapiens, UniProt P05186); assay: potency against alkaline phosphatase TNAP – biochemical, luminescent, dose response, SAR follow-up (AID 1056)
T6 sequence (P05186 whole entry): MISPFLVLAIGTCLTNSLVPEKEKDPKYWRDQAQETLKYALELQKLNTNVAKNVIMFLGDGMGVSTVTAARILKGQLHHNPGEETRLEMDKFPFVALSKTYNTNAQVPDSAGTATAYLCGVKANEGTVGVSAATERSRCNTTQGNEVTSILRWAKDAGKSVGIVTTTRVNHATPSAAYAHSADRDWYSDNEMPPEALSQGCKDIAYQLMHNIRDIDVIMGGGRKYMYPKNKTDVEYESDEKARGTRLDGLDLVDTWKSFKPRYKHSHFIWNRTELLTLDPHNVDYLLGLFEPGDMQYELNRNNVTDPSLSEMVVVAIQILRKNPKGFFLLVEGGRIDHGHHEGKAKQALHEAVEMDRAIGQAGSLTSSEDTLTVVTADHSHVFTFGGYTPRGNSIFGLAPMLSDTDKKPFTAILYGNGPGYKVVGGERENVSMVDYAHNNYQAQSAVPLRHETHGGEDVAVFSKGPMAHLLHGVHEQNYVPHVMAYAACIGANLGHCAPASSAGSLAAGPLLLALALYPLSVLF

## C=Cn1cc[n+](CC(=O)c2ccc(Br)cc2)c1
[1]
  IC50: 15.1 µM (active)

## O=C(Nc1nnc(-c2ccc(F)cc2)o1)c1cc(Cl)sc1Cl
[1]
  IC50: 14.5 µM (active)
[2]
  CC50: 24.2 µM (active)
[3]
  CC50: 15.3 µM (active)
[4]
  AC50: 1.99 µM (active)
cells
  IC50: 0.24 µM (active)

## O=C(c1cccc(F)c1)N1CCC2(CC1)CN(c1ccc(-c3ccccc3)cc1)C2
Cytochrome P450 3A4
  AC50: inconclusive

## CCOC(=O)C1(Cc2cccc(F)c2)CCN(C(=O)Cn2cnnn2)CC1
Coagulation factor XII
  IC50: > 50 µM (inactive)

## CC(=O)O[C@H]1CC[C@@]2(C)C(=CC[C@@H]3[C@H]2CC[C@]2(C)C(=O)CC[C@H]32)C1
Cytochrome P450 2C9
  AC50: 15.8 µM (inconclusive)
Cytochrome P450 2C19
  AC50: 5.01 µM (inconclusive)
Cytochrome P450 3A4
  AC50: inconclusive

## CCOC(=O)c1c(C)nc2sc3c(=O)n(-c4ccc(OC)cc4)nnc3c2c1-c1ccc(OC)cc1
[5]
  EC50: > 112 µM (not active)
[6]
  EC50: > 112 µM (not active)
Cytochrome P450 2C19
  AC50: 2.51 µM (inconclusive)
Cytochrome P450 3A4
  AC50: inconclusive

## CC(C)Cn1c(-c2ccccc2)nc2ccccc2c1=O
Coagulation factor XII
  IC50: > 50 µM (inactive)

## Cc1ccc(-c2cc3c(N=O)c4ccccc4c-3[nH]n2)cc1
[7]
  EC50: 6.32 µM (active)
[8]
  IC50: > 80 µM (inactive)
[9]
  EC50: 4.95 µM (active)
[5]
  EC50: 0.207 µM (active)
[6]
  EC50: 3.05 µM (active)
BJ [10]
  EC50: 6.45 µM (active)
BJ [11]
  EC50: 6.73 µM (active)
BJ [12]
  EC50: 13.1 µM (active)

## COc1ccccc1CN1C(=O)[C@@H]2C(CCC(N)=O)NC3(C(=O)Nc4c3ccc(Cl)c4C)[C@@H]2C1=O (stereo not given in full)
[1]
  IC50: 16.6 µM (active)

## Cc1cc(NC(=O)c2ccccc2F)n(-c2nc3ccccc3[nH]2)n1
[2]
  CC50: > 40 µM (active)
[3]
  CC50: 17.6 µM (active)
cells
  IC50: > 50 µM (active)

## COc1ccc(CCn2c(NN=C3CCCCC3)nc3c2c(=O)[nH]c(=O)n3C)cc1
[13]
  IC50: 11.6 µM (active)

## CCCCc1ccc(NC(=O)CSc2nc(=O)n(CCCN3CCOCC3)c3c2CCC3)cc1
[1]
  IC50: 13.8 µM (active)

## Cc1c(C(=O)Nc2cccc(C(F)(F)F)c2)oc2ccc(S(=O)(=O)N3CCOCC3)cc12
[14]
  AC50: 3.8 µM (active)
Cytochrome P450 1A2
  AC50: 10 µM (inconclusive)
[15]
  AC50: > 70 µM (inactive)
Protein skinhead-1
  IC50: > 100 µM (inactive)
[16]
  AC50: > 70 µM (inactive)
Cytochrome P450 3A4
  AC50: inconclusive

## CCOc1ccc(CC(=O)C2C(=O)CCCC2=O)cc1OCC
Cytochrome P450 2C19
  AC50: 39.8 µM (inconclusive)
Cytochrome P450 3A4
  AC50: inconclusive

## O=C1c2ccccc2C(=O)N1c1nc(-c2cccnc2)n[nH]1
[17]
  IC50: > 100 µM (not active)
[18]
  IC50: > 100 µM (inactive)
